# Article PMC9721424, “Novel N-methylsulfonyl-indole derivatives: biological activity and COX-2/5-LOX inhibitory effect with improved gastro protective profile and reduced cardio vascular risks” (Journal of Enzyme Inhibition and Medicinal Chemistry, 2022)
# Several values for one entry are separate records, joined by “and”; a condition that tells them apart may be missing. Identical values can stand only once. Like-named read-outs stand apart in the source and are kept apart here.
# Columns and labels:
# [1] = system: TNF-α in RAW264.7 macrophage cells; experiment: In vitro measurement of TNF-α in RAW264.7 macrophage cells (RT-qPCR); assay type: cell-based
# Excerpt: Both Lipopolysaccharides (LPS) and hispidin were purchased from Sigma (Sigma-Aldrich, St. Louis, MO, USA)[40]. The foetal bovine serum (FBS) and Dulbecco’s modified Eagle’s medium (DMEM) were purchased from Hyclone (General Electric Healthcare Life Sciences, Mississauga, Canada), penicillin streptomycin (P/S) was purchased from Solarbio (Solarbio life sciences, Beijing, P. R. China). Results of all in vitro anti-inflammatory screening were obtained from the confirmatory diagnostic unit, VACSERA, Egypt.
# DMEM was used to cultivate the macrophage cells RAW264.7 (Shanghai BOGO Industrial Co., Ltd., Shanghai, China), and supplemented with 10% FBS and 1% P/S (100 U/ml and […], respectively). […] They were treated with various concentrations of hispidin, then with 1 μg/ml LPS for the indicated time.
# PBS (1 ml/well) was used to wash the cells in 24-well plates. […] For the experiments, CL Buffer included MgCl2 (M1028; Sigma) or RNasin Plus RNase Inhibitor (N2615; Promega). Before use, both Bio-Rad SPR and CL buffer were equilibrated to room temperature. […] Carefully, the resulting lysates were collected and either analysed immediately or stored frozen ([…]).
# RT-qPCR analysis was performed in one-step SYBR Green RT-qPCR. […] A CFX96 real-time PCR instrument (Bio-Rad) was used under the following protocol: 50uC for 10 min, 95uC for 5 min, 95uC for 10 s/61uC for 15 s/72uC for 30 s.
# Total RNA purified from cells was used as an RT-qPCR quantification standard.
# 5-LOX enzyme = target: T1, 5-LOX enzyme (Homo sapiens, UniProt P09917); experiment: 5-LOX inhibition, Human Lipoxygenase Inhibitor Screening Assay (EIA) kit; assay type: biochemical
# T1 construct: purchased Cayman Chemical K980-100
# T1 sequence (P09917 1-674): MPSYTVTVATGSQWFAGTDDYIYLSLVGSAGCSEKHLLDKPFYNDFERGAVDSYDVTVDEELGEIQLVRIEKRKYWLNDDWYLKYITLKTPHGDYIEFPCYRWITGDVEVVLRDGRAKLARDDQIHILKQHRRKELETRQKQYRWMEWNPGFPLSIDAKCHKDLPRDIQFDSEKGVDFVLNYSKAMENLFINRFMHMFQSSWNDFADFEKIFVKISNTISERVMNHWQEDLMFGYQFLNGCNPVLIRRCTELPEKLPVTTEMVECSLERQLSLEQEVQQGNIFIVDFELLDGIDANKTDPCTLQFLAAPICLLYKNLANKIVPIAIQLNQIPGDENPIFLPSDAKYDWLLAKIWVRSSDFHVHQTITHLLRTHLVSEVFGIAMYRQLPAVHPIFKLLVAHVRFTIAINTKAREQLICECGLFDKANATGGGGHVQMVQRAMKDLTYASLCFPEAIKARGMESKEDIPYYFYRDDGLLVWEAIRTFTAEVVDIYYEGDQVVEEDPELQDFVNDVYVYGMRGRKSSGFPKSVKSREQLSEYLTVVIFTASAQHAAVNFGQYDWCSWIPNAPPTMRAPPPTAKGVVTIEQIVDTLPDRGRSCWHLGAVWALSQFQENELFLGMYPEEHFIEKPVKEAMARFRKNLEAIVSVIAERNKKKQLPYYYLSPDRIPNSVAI
# Method: The ability of the test compounds to inhibit the 5-LOX enzyme (IC50 value, μM) was detected using the Cayman Human Lipoxygenase Inhibitor Screening Assay (EIA) kit (catalog no. K980-100, Cayman Chemical). The IC50 values of test compounds were measured in µM according to the manufacturer’s instructions and reported method.
# [2] = system: Escherichia coli (E. coli) (ATCC 25922); experiment: Disc diffusion antimicrobial screening, E. coli; assay type: cell-based; settings: for antibacterial activity against E. coli: 100 µg/disc
# Method: All compounds were screened for their antimicrobial activity at the Microbiology and Immunology Department, Faculty of Pharmacy, Beni-Suef University. The antimicrobial activity screening was carried out using the disc diffusion method, as described earlier, with some adjustments.
# For each indicator microbe, a solution of half McFarland turbidity was prepared in sterile saline, followed by surface streaking of the strains on Mueller-Hinton agar with a sterile cotton swab. Then, sterile filter paper discs (5 mm diameter) preloaded with 100 µg of each compound were applied to the surface of the pre-inoculated plates. Then, the plates were chilled at 4 °C for 100 min before being incubated overnight at the proper temperature for microbial growth. Finally, the diameter of the inhibition zones around each disc was measured to evaluate the antimicrobial activity of the compounds. Ciprofloxacin was used as a standard antibacterial agent at a concentration of 20 µg/disc. Furthermore, DMSO-loaded discs were used as a negative control.
# stomach = experiment: Histopathological examination of stomach; assay type: in vivo, rats; settings: rats, H&E stain
# Method: In brief, the stomachs of each animal group’s rat were fixed in 10% neutral buffered formalin for 48 h. The sections were then dehydrated, cleared, fixed in paraffin, sectioned ([…]), and stained with H&E stain.
# COX-2 = target: T2, COX-2 (Ovis aries, UniProt P79208); experiment: COX-2 inhibition, enzyme immune assay (EIA) kit; assay type: biochemical, ovine; settings: for S.I (IC50 COX-1/IC50 COX-2): COX-2 selectivity index; for SI: lab report, COX1/COX2
# T2 sequence (P79208 17-603): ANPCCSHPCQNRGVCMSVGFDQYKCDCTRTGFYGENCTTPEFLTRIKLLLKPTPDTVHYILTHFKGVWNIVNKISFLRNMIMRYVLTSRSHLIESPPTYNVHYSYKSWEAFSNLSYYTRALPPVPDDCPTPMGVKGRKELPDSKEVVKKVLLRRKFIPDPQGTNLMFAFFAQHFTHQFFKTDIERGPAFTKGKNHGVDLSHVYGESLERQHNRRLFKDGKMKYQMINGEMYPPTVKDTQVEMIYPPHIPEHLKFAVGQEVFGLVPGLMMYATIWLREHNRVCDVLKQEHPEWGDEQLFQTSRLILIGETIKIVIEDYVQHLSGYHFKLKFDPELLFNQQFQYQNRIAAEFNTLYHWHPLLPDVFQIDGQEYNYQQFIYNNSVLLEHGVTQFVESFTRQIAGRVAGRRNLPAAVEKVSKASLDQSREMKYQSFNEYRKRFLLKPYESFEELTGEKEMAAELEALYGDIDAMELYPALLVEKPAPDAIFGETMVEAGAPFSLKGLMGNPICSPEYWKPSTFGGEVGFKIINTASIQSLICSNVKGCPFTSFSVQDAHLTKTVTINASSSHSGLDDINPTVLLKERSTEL
SMILES,TNF-α fold change [1],IC50 (5-LOX enzyme) [nM],5-LOX %inh (5-LOX enzyme; conc 0.1 (μM)) [%],5-LOX %inh (5-LOX enzyme; conc 1 (μM)) [%],5-LOX %inh (5-LOX enzyme; conc 10 (μM)) [%],5-LOX %inh (5-LOX enzyme; conc 100 (μM)) [%],IC50 (5-LOX enzyme; lab report) [nM],antibacterial activity against E. coli [2],"zone of inhibition at 100 µg/disc ([2]; Escherichia coli, ATCC25922, read-out: diameters of inhibition zones) [mm]",stomach histopathology finding (stomach),melting point [°C],S.I (IC50 COX-1/IC50 COX-2) (COX-2),SI (COX-2)
Cc1ccc(N2C(=O)CSC2=NN=Cc2cn(S(C)(=O)=O)c3ccccc23)cc1 [Compound 5d],0.21,1100 ± 60,30.3,47.6,70.6,86.9,1100 ± 60,exclusively exhibited bioactivity against E. coli,8 to 15,minimally disrupted mucous layer,271 to 273,8.59 and 8.60,8.596
"COc1ccc(NC(=S)N/N=C/c2cn(S(C)(=O)=O)c3ccccc23)cc1 [Compound 4e, (E)-N-(4-Methoxyphenyl)-2{[1-(methylsulfonyl)-1H-indol 3yl]methylene}hydrazinecarbothioamide]",0.26,4080 ± 220,17.9,30.9,55.7,85,4080 ± 220,selective antibacterial activity,,partial loss of mucous layer with mild superficial erosions,214 to 216,30.17,30.17
